Experimental data taken from patent US10167262B2, “Herbicidal substituted 3-arylpyrazoles” (FMC CORPORATION, priority 2014, dated 2019).

Legend:
Assay in all cases: Test E pre-/postemergence greenhouse test, plant response rating 0-100
Type in all cases: in vivo
[1] = test system: Brazilian crabgrass (Digitaria horizontalis); conditions: Digitaria horizontalis, post-emergence, Postemergence, scale 0 to 100, read-out: Plant response rating, Crabgrass, Brazil
Outline: (§1)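 Sow seeds in silt loam and treat preemergence; at the same time, spray postemergence on 1- to 4-leaf plants in peat/vermiculite mix. Use a non-phytotoxic solvent plus surfactant as carrier. Hold 14–21 days in greenhouse, then score visually 0–100 against controls.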

[2] = test system: arrowleaf sida (Sida rhombifolia); conditions: Sida rhombifolia, post-emergence, Postemergence
Outline: as §1

[3] = test system: barnyardgrass (Echinochloa crus-galli); conditions: Echinochloa crus-galli, post-emergence, Postemergence, scale 0 to 100
Outline: as §1

corn (Zea mays) = conditions: Zea mays, post-emergence, Postemergence, scale 0 to 100
Outline: as §1

[4] = test system: fall panicum (Panicum dichotomiflorum); conditions: Panicum dichotomiflorum, post-emergence, Postemergence, scale 0 to 100
Outline: as §1

[5] = test system: hairy beggarticks (Bidens pilosa); conditions: Bidens pilosa, post-emergence, Postemergence, scale 0 to 100
Outline: as §1

[6] = test system: palmer pigweed (Amaranthus palmeri); conditions: Amaranthus palmeri, post-emergence, Postemergence, scale 0 to 100
Outline: as §1

[7] = test system: sandbur (southern sandbur, Cenchrus echinatus); conditions: Cenchrus echinatus, post-emergence, Postemergence, scale 0 to 100
Outline: as §1

soybean (Glycine max) = conditions: Glycine max, post-emergence, Postemergence, scale 0 to 100
Outline: as §1

[8] = test system: waterhemp (common waterhemp, Amaranthus rudis); conditions: Amaranthus tuberculatus, post-emergence, Postemergence, scale 0 to 100
Outline: as §1

[9] = test system: wild poinsettia (Euphorbia heterophylla); conditions: Euphorbia heterophylla, post-emergence, Postemergence, scale 0 to 100, read-out: Plant response rating, Poinsettia, Wild
Outline: as §1

## CCOC(OCC)(c1ccccc1)c1c[nH]nc1-c1cc(Cl)cc(Cl)c1 [Compound 14, 3-(3,5-dichlorophenyl)-4-(diethoxyphenylmethyl)-1H-pyrazole]
[1]; 31 g ai/ha
  pest or weed control at 31 g/ha: 0%
[1]; 62 g ai/ha
  pest or weed control at 62 g/ha: 0%
[1]; 125 g ai/ha
  pest or weed control at 125 g/ha: 0%
[1]; 250 g ai/ha
  pest or weed control at 250 g/ha: 0%
[1]; 500 g ai/ha
  pest or weed control at 500 g/ha: 0%
[2]; 31 g ai/ha, scale 0 to 100
  pest or weed control at 31 g/ha: 80%
[2]; 62 g ai/ha, scale 0 to 100
  pest or weed control at 62 g/ha: 90%
[2]; 125 g ai/ha, scale 0 to 100
  pest or weed control at 125 g/ha: 90%
[2]; 250 g ai/ha, scale 0 to 100
  pest or weed control at 250 g/ha: 90%
[2]; 500 g ai/ha, scale 0 to 100 (0 no effect, 100 complete control)
  pest or weed control at 500 g/ha: 95%
[3]; 31 g ai/ha
  pest or weed control at 31 g/ha: 0%
[3]; 62 g ai/ha
  pest or weed control at 62 g/ha: 0%
[3]; 125 g ai/ha
  pest or weed control at 125 g/ha: 0%
[3]; 250 g ai/ha
  pest or weed control at 250 g/ha: 0%
[3]; 500 g ai/ha
  pest or weed control at 500 g/ha: 10%
Corn (Zea mays); 31 g ai/ha
  Corn plant response rating (crop injury, 0 = no effect, 100 = complete kill) at 31 g/ha: 0%
Corn (Zea mays); 62 g ai/ha
  Corn plant response rating (crop injury, 0 = no effect, 100 = complete kill) at 62 g/ha: 0%
Corn (Zea mays); 125 g ai/ha
  Corn plant response rating (crop injury, 0 = no effect, 100 = complete kill) at 125 g/ha: 0%
Corn (Zea mays); 250 g ai/ha
  Corn plant response rating (crop injury, 0 = no effect, 100 = complete kill) at 250 g/ha: 0%
Corn (Zea mays); 500 g ai/ha
  Corn plant response rating (crop injury, 0 = no effect, 100 = complete kill) at 500 g/ha: 0%
[4]; 31 g ai/ha
  pest or weed control at 31 g/ha: 0%
[4]; 62 g ai/ha
  pest or weed control at 62 g/ha: 0%
[4]; 125 g ai/ha
  pest or weed control at 125 g/ha: 0%
[4]; 250 g ai/ha
  pest or weed control at 250 g/ha: 0%
[5]; 31 g ai/ha
  pest or weed control at 31 g/ha: 80%
[5]; 62 g ai/ha
  pest or weed control at 62 g/ha: 90%
[5]; 125 g ai/ha
  pest or weed control at 125 g/ha: 95%
[5]; 250 g ai/ha
  pest or weed control at 250 g/ha: 95%
[5]; 500 g ai/ha
  pest or weed control at 500 g/ha: 98%
[6]; 31 g ai/ha
  pest or weed control at 31 g/ha: 80%
[6]; 62 g ai/ha
  pest or weed control at 62 g/ha: 90%
[6]; 125 g ai/ha
  pest or weed control at 125 g/ha: 95%
[6]; 250 g ai/ha
  pest or weed control at 250 g/ha: 100%
[6]; 500 g ai/ha
  pest or weed control at 500 g/ha: 100%
[7]; 31 g ai/ha
  pest or weed control at 31 g/ha: 0%
[7]; 62 g ai/ha
  pest or weed control at 62 g/ha: 0%
[7]; 125 g ai/ha
  pest or weed control at 125 g/ha: 0%
[7]; 250 g ai/ha
  pest or weed control at 250 g/ha: 0%
[7]; 500 g ai/ha
  pest or weed control at 500 g/ha: 0%
Soybean (Glycine max); 31 g ai/ha
  plant injury at 31 g/ha: 0%
Soybean (Glycine max); 62 g ai/ha
  plant injury at 62 g/ha: 0%
Soybean (Glycine max); 125 g ai/ha
  plant injury at 125 g/ha: 0%
Soybean (Glycine max); 250 g ai/ha
  plant injury at 250 g/ha: 0%
Soybean (Glycine max); 500 g ai/ha
  plant injury at 500 g/ha: 0%
[8]; 31 g ai/ha
  pest or weed control at 31 g/ha: 90%
[8]; 62 g ai/ha
  pest or weed control at 62 g/ha: 95%
[8]; 125 g ai/ha
  pest or weed control at 125 g/ha: 98%
[8]; 250 g ai/ha
  pest or weed control at 250 g/ha: 100%
[8]; 500 g ai/ha
  pest or weed control at 500 g/ha: 100%
[9]; 31 g ai/ha
  pest or weed control at 31 g/ha: 0%
[9]; 62 g ai/ha
  pest or weed control at 62 g/ha: 0%
[9]; 125 g ai/ha
  pest or weed control at 125 g/ha: 0%
[9]; 250 g ai/ha
  pest or weed control at 250 g/ha: 10%
[9]; 500 g ai/ha
  pest or weed control at 500 g/ha: 5%
